Patent US9693556B2, “Herbicidal pyridazinone derivatives” (SYNGENTA LIMITED, priority 2011, dated 2017)

Columns and labels:
Type in all cases: in vivo
[1] = system: Ipomoea hederacea (IPOHE); assay: Post-emergence herbicidal glasshouse test on Ipomoea hederacea; conditions: post-emergence; 1000 g/h; evaluated after 13 days
In short: (§1)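 Steps: sow seeds in standard soil; cultivate 1 d (pre-) or 8 d (post-emergence) at 24/16 °C, 14 h light, 65% humidity; spray 1000 g/h in acetone/water plus Tween 20; grow on, watering twice daily; score percentage damage after 13 d.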

[2] = system: Alopecurus myosuroides (ALOMY); assay: Pre-emergence herbicidal glasshouse test on Alopecurus myosuroides; conditions: pre-emergence; 1000 g/h; evaluated after 13 days
In short: as §1

Setaria faberi (SETFA) [3] = assay: Post-emergence herbicidal glasshouse test on Setaria faberi; conditions: post-emergence; 1000 g/h; evaluated after 13 days
In short: as §1

[4] = system: Ipomoea hederacea (IPOHE); assay: Pre-emergence herbicidal glasshouse test on Ipomoea hederacea; conditions: pre-emergence; 1000 g/h; evaluated after 13 days
In short: as §1

Solanum nigrum (SOLNI) [5] = assay: Pre-emergence herbicidal glasshouse test on Solanum nigrum; conditions: pre-emergence; 1000 g/h; evaluated after 13 days
In short: as §1

[6] = system: Echinochloa crus-galli (ECHCG); assay: Pre-emergence herbicidal glasshouse test on Echinochloa crus-galli; conditions: pre-emergence; 1000 g/h; evaluated after 13 days
In short: as §1

[7] = system: Alopecurus myosuroides (ALOMY); assay: Post-emergence herbicidal glasshouse test on Alopecurus myosuroides; conditions: post-emergence; 1000 g/h; evaluated after 13 days
In short: as §1

Solanum nigrum (SOLNI) [8] = assay: Post-emergence herbicidal glasshouse test on Solanum nigrum; conditions: post-emergence; 1000 g/h; evaluated after 13 days
In short: as §1

Setaria faberi (SETFA) [9] = assay: Pre-emergence herbicidal glasshouse test on Setaria faberi; conditions: pre-emergence; 1000 g/h; evaluated after 13 days
In short: as §1

[10] = system: Amaranthus retoflexus (AMARE); assay: Post-emergence herbicidal glasshouse test on Amaranthus retoflexus; conditions: post-emergence; 1000 g/h; evaluated after 13 days
In short: as §1

[11] = system: Amaranthus retoflexus (AMARE); assay: Pre-emergence herbicidal glasshouse test on Amaranthus retoflexus; conditions: pre-emergence; 1000 g/h; evaluated after 13 days
In short: as §1

[12] = system: Echinochloa crus-galli (ECHCG); assay: Post-emergence herbicidal glasshouse test on Echinochloa crus-galli; conditions: post-emergence; 1000 g/h; evaluated after 13 days
In short: as §1

| SMILES | POST Application IPOHE herbicidal damage (five point scale) [1] | PRE Application ALOMY herbicidal damage (five point scale) [2] | POST Application SETFA herbicidal damage (five point scale) (Setaria faberi (SETFA) [3]) | PRE Application IPOHE herbicidal damage (five point scale) [4] | PRE Application SOLNI herbicidal damage (five point scale) (Solanum nigrum (SOLNI) [5]) | PRE Application ECHCG herbicidal damage (five point scale) [6] | POST Application ALOMY herbicidal damage (five point scale) [7] | POST Application SOLNI herbicidal damage (five point scale) (Solanum nigrum (SOLNI) [8]) | PRE Application SETFA herbicidal damage (five point scale) (Setaria faberi (SETFA) [9]) | POST Application AMARE herbicidal damage (five point scale) [10] | PRE Application AMARE herbicidal damage (five point scale) [11] | POST Application ECHCG herbicidal damage (five point scale) [12] |
| --- | --- | --- | --- | --- | --- | --- | --- | --- | --- | --- | --- | --- |
| CCS(=O)(=O)c1nc(C(F)(F)F)ccc1-c1cnn(C)c(=O)c1O [Compound 1.135] | 5 (5=80-100% damage) | 4 (4=60-79% damage) | 5 (5=80-100% damage) | 5 (5=80-100% damage) | 5 (5=80-100% damage) | 5 (5=80-100% damage) | 4 (4=60-79% damage) | 5 (5=80-100% damage) | 5 (5=80-100% damage) | 5 (5=80-100% damage) | 5 (5=80-100% damage) | 5 (5=80-100% damage) |
| Cn1ncc(-c2ccc(S(C)(=O)=O)c(OCC(F)(F)F)c2Cl)c(O)c1=O [Compound 1.137] | 5 (5=80-100% damage) | 1 (1=0-19% damage) | 5 (5=80-100% damage) | 1 (1=0-19% damage) | 3 (3=40-59% damage) | 1 (1=0-19% damage) | 1 (1=0-19% damage) | 5 (5=80-100% damage) | 1 (1=0-19% damage) | 5 (5=80-100% damage) | 2 (2=20-39% damage) | 5 (5=80-100% damage) |
| Cn1ncc(-c2cccn(-c3cccc(C#N)c3)c2=O)c(O)c1=O [Compound 1.138] | 1 (1=0-19% damage) | 1 (1=0-19% damage) | 5 (5=80-100% damage) | 1 (1=0-19% damage) | 1 (1=0-19% damage) | 1 (1=0-19% damage) | 1 (1=0-19% damage) | 5 (5=80-100% damage) | 1 (1=0-19% damage) | 5 (5=80-100% damage) | 1 (1=0-19% damage) | 4 (4=60-79% damage) |
| C=C(C)c1ccc(-c2cnn(C)c(=O)c2O)c(S(C)(=O)=O)c1 [Compound 1.140] | 5 (5=80-100% damage) | 5 (5=80-100% damage) | 3 (3=40-59% damage) | 2 (2=20-39% damage) | 5 (5=80-100% damage) | 5 (5=80-100% damage) | 5 (5=80-100% damage) | 5 (5=80-100% damage) | 1 (1=0-19% damage) | 5 (5=80-100% damage) | 5 (5=80-100% damage) | 5 (5=80-100% damage) |
| Cn1ncc(-c2ccc(C#N)cc2S(C)(=O)=O)c(O)c1=O [Compound 1.141] | 5 (5=80-100% damage) | 5 (5=80-100% damage) | 5 (5=80-100% damage) | 5 (5=80-100% damage) | 5 (5=80-100% damage) | 5 (5=80-100% damage) | 5 (5=80-100% damage) | 5 (5=80-100% damage) | 5 (5=80-100% damage) | 5 (5=80-100% damage) | 5 (5=80-100% damage) | 5 (5=80-100% damage) |
| Cn1ncc(-c2cccn(-c3cccc(Cl)c3)c2=O)c(O)c1=O [Compound 1.143] | 1 (1=0-19% damage) | 2 (2=20-39% damage) | 1 (1=0-19% damage) | 1 (1=0-19% damage) | 1 (1=0-19% damage) | 1 (1=0-19% damage) | 2 (2=20-39% damage) | 4 (4=60-79% damage) | 1 (1=0-19% damage) | 1 (1=0-19% damage) | 3 (3=40-59% damage) | 2 (2=20-39% damage) |
| COCn1ncc(-c2ccccc2S(C)(=O)=O)c(O)c1=O [Compound 1.144] | 5 (5=80-100% damage) | 5 (5=80-100% damage) | 5 (5=80-100% damage) | 4 (4=60-79% damage) | 5 (5=80-100% damage) | 5 (5=80-100% damage) | 5 (5=80-100% damage) | 5 (5=80-100% damage) | 4 (4=60-79% damage) | 5 (5=80-100% damage) | 5 (5=80-100% damage) | 5 (5=80-100% damage) |
| COCn1ncc(-c2ccccc2[S+](C)[O-])c(O)c1=O (stereo not drawn) [Compound 1.145] | 5 (5=80-100% damage) | 1 (1=0-19% damage) | 5 (5=80-100% damage) | 1 (1=0-19% damage) | 2 (2=20-39% damage) | 4 (4=60-79% damage) | 3 (3=40-59% damage) | 5 (5=80-100% damage) | 2 (2=20-39% damage) | 5 (5=80-100% damage) | 5 (5=80-100% damage) | 5 (5=80-100% damage) |
